# Legend:
# [1] = test system: production of β-amyloid protein (Aβ) by E35 cells (human glioma H4 cells transfected with APP751 gene); assay: Screening system using cells: inhibition of production/secretion of β-amyloid protein (Aβ sandwich ELISA of culture supernatant); assay type: cell-based; conditions: 24 hours with compound, Aβ in supernatant by ELISA, read-out: Activity (EC50, concentration at which production of Aβ is inhibited by 50%)
# Protocol: Inhibitory activity of compounds against production of β-amyloid protein was measured by quantitative determination of the amount of β-amyloid protein (Aβ) secreted into the culture medium by sandwich enzyme-linked immunosorbent assay (ELISA) method, using E35 cells prepared by transfecting APP751 gene, which is a human wild type β-amyloid protein precursor protein gene, into human glioma cells (H4 cells).
# That is, E35 cells were inoculated into a 96-well plate followed by cultivation in an incubator equilibrated with 5% carbon dioxide at 37° C., using Dulbecco's Modified Eagle's Medium supplemented with inactivated 10% fetal bovine serum as the medium. Test compounds dissolved in DMSO solution were added 24 hours after inoculation. Test compounds in DMSO solution were prepared to have a 2000-fold concentration of the final concentration, so that the DMSO concentration in the medium becomes 0.05%. After further cultivation for 24 hours, supernatant was collected, and was added to a 96-well plate for ELISA fixed with monoclonal antibody 25-1 against Aβ. Incubation was carried out at 4° C. for 16-20 hours. The plate was washed with phosphate buffer (pH 7.4), followed by addition of biotinylated monoclonal antibody MA32-40 against Aβ, and the plate was allowed to stand at 4° C. for 2 hours. After the plate was washed with phosphate buffer again, streptavidin conjugated alkaline phosphatase was added. Biotin was allowed to conjugate with streptavidin, and then the plate was washed with phosphate buffer. Blue Phos (KPL Inc.) was added to the plate, and then after incubation for an appropriate period of time, absorbance was measured for each of the wells. The amount of Aβ contained in the supernatant of conditioned medium was obtained from a calibration curve which was prepared separately. The concentration at which production of Aβ is inhibited by 50% (EC50), when compared with the control cells without the addition of the compound, was calculated. Here, 25-1 antibody and MA32-40 antibody used in ELISA are mouse monoclonal antibodies derived from hybridoma cell clone cell lines, which specifically recognize each antigen which was prepared and selected in accordance with a standard method by using Aβ25-35 and Aβ1-8 as antigens, respectively.
# Results for the evaluation made by the aforementioned assay with respect to compound (I) of the present invention are shown in Table 1. Notation of ++++ is provided when EC50 is 5 nM or lower, +++ when 5-50 nM, and ++ when 50-500 nM.
smiles,measurement,setting,value
"Cc1cc(C(N)=O)ncc1C(c1c(F)ccc(F)c1F)S(=O)(=O)CCC(F)(F)C(F)(F)F (stereo not drawn) [Example 19, 4-Methyl-5-[[(3,3,4,4,4-pentafluorobutyl)sulfonyl](2,3,6-trifluorophenyl)methyl]pyridine-2-carboxamide]",EC50,[1],5 to 50 nM
same,melting point,,155 to 156 °C
"Cc1cc(C(N)=O)ncc1C(c1c(F)ccc(F)c1F)S(=O)(=O)CC=C(F)F (stereo not drawn) [Example 37, 5-[[(3,3-Difluoroprop-2-en-1-yl)sulfonyl](2,3,6-trifluorophenyl)methyl]-4-methylpyridine-2-carboxamide]",EC50,[1],50 to 500 nM
same,melting point,,171 to 172 °C
"Cc1cc(C(N)=O)ncc1C(c1c(F)ccc(F)c1F)S(=O)(=O)CCC(C)(F)F (stereo not drawn) [Example 10, 5-[[(3,3-Difluorobutyl)sulfonyl](2,3,6-trifluorophenyl)methyl]-4-methylpyridine-2-carboxamide]",EC50,[1],50 to 500 nM
same,melting point,,165 to 166 °C
Cc1cc(C(N)=O)ncc1C(c1c(F)ccc(F)c1F)S(=O)(=O)CC1CCC1 (stereo not drawn),melting point,,214 to 215 °C
"Nc1cc(=O)n2cc(Cl)c(C(c3c(F)ccc(F)c3F)S(=O)(=O)CCC(F)(F)F)cc2n1 (stereo not drawn) [Example 51, 2-Amino-7-chloro-8-[(2,3,6-trifluorophenyl)[(3,3,3-trifluoropropyl)sulfonyl]methyl]-4H-pyrido[1,2-a]pyrimidin-4-one]",EC50,[1],≤ 5 nM
same,melting point,,247 °C (dec.)
Cc1cc(C(N)=O)ncc1C(c1c(F)ccc(F)c1F)S(=O)(=O)CCCF (stereo not drawn),melting point,,194 to 196 °C
"Nc1cc(C(c2c(F)ccc(F)c2F)S(=O)(=O)CCC(F)(F)F)c(Cl)cn1 (stereo not drawn) [Example 48, 5-Chloro-4-[(2,3,6-trifluorophenyl)[(3,3,3-trifluoropropyl)sulfonyl]methyl]pyridin-2-amine]",EC50,[1],5 to 50 nM
same,melting point,,155 to 159 °C
"O=c1[nH]nc2cc(C(c3c(F)ccc(F)c3F)S(=O)(=O)CCC(F)(F)F)c(Cl)cn12 (stereo not drawn) [Example 54, 6-Chloro-7-[(2,3,6-trifluorophenyl)[(3,3,3-trifluoropropyl)sulfonyl]methyl][1,2,4]triazolo[4,3-a]pyridin-3(2H)-one]",EC50,[1],5 to 50 nM
same,melting point,,209 to 211 °C
CCCS(=O)(=O)C(c1cnc(C(N)=O)cc1C)c1c(F)ccc(F)c1F (stereo not drawn),melting point,,202 to 204 °C
Cc1cc(C(N)=O)ncc1C(c1c(F)ccc(F)c1F)S(=O)(=O)CC1CC1 (stereo not drawn),melting point,,222 to 223 °C
Cc1cc(C(=O)NCCO)ncc1C(c1c(F)ccc(F)c1F)S(=O)(=O)CCC(F)(F)F (stereo not drawn),melting point,,146 to 147 °C
"Cc1cc(C(N)=O)ncc1C(c1c(F)ccc(F)c1F)S(=O)(=O)CCC(F)(F)Cl (stereo not drawn) [Example 34, 5-[[(3-Chloro-3,3-difluoropropyl)sulfonyl](2,3,6-trifluorophenyl)methyl]-4-methylpyridine-2-carboxamide]",EC50,[1],5 to 50 nM
same,melting point,,181 to 183 °C
"NC(=O)c1cc(C(c2c(F)ccc(F)c2F)S(=O)(=O)CCC(F)(F)F)c(Cl)cn1 (stereo not drawn) [Example 45, 5-Chloro-4-[(2,3,6-trifluorophenyl)[(3,3,3-trifluoropropyl)sulfonyl]methyl]pyridine-2-carboxamide]",EC50,[1],50 to 500 nM
same,melting point,,237 to 239 °C
"Cc1cc(C(=O)NCO)ncc1C(c1c(F)ccc(F)c1F)S(=O)(=O)CCC(F)(F)F (stereo not drawn) [Example 4, N-(Hydroxymethyl)-4-methyl-5-[(2,3,6-trifluorophenyl)[(3,3,3-trifluoropropyl)sulfonyl]methyl]pyridine-2-carboxamide]",EC50,[1],5 to 50 nM
same,melting point,,146 to 148 °C
Cc1cc(C(N)=O)ncc1C(c1c(F)ccc(F)c1F)S(=O)(=O)CC(F)(F)C(F)F (stereo not drawn),melting point,,160 to 161 °C
Cc1cc(C(N)=O)ncc1C(c1c(F)ccc(F)c1F)S(=O)(=O)CC(C(F)(F)F)C(F)(F)F (stereo not drawn),melting point,,194 to 196 °C
"CCCCS(=O)(=O)C(c1cnc(C(N)=O)cc1C)c1c(F)ccc(F)c1F (stereo not drawn) [Example 15, 5-[(Butylsulfonyl)(2,3,6-trifluorophyenyl)methyl]-4-methylpyridine-2-carboxamide]",EC50,[1],50 to 500 nM
same,melting point,,203 to 204 °C
Cc1cc(C(=O)O)ncc1C(c1c(F)ccc(F)c1F)S(=O)(=O)CCC(F)(F)F (stereo not drawn),melting point,,85 to 87 °C
Cc1cc(C(N)=O)ncc1C(c1c(F)ccc(F)c1F)S(=O)(=O)CC(C)C (stereo not drawn),melting point,,240 to 241 °C
"O=c1cc(O)nc2cc(C(c3c(F)ccc(F)c3F)S(=O)(=O)CCC(F)(F)F)c(Cl)cn12 (stereo not drawn) [Example 49, 7-Chloro-2-hydroxy-8-[(2,3,6-trifluorophenyl)[(3,3,3-trifluoropropyl)sulfonyl]methyl]-4H-pyrido[1,2-a]pyrimidin-4-one]",EC50,[1],5 to 50 nM
same,melting point,,264 °C (dec.)
"Cc1cc(C(=O)NCO)ncc1C(c1c(F)ccc(F)c1F)S(=O)(=O)CCC(F)(F)Cl (stereo not drawn) [Example 35, 5-[[(3-Chloro-3,3-difluoropropyl)sulfonyl](2,3,6-trifluorophenyl)methyl]-N-(hydroxymethyl)-4-methylpyridine-2-carboxamide]",EC50,[1],5 to 50 nM
same,melting point,,150 to 152 °C
Cc1cc(C(N)=O)ncc1C(c1c(F)ccc(F)c1F)S(=O)(=O)CC1CC(F)(F)C1 (stereo not drawn),melting point,,205 to 207 °C
Cc1cc(C(N)=O)ncc1C(c1c(F)ccc(F)c1F)S(=O)(=O)CCC(F)=C(F)F (stereo not drawn),melting point,,170 to 172 °C
"Cc1cc(C(N)=O)ncc1C(c1c(F)ccc(F)c1F)S(=O)(=O)CCC(F)(F)F (stereo not drawn) [Example 3, 4-Methyl-5-[(2,3,6-trifluorophenyl)[(3,3,3-trifluoropropyl)sulfonyl]methyl]pyridine-2-carboxamide]",EC50,[1],50 to 500 nM
same,melting point,,190 to 191 °C
Cc1cc(C(=O)N(C)C)ncc1C(c1c(F)ccc(F)c1F)S(=O)(=O)CCC(F)(F)F (stereo not drawn),melting point,,203 to 204 °C
Cc1cc(C(N)=O)ncc1C(SCCC=C(F)F)c1c(F)ccc(F)c1F (stereo not drawn),melting point,,97 to 98 °C
Cc1cc(C(=O)NCO)ncc1C(c1c(F)ccc(F)c1F)S(=O)(=O)CCC(F)(F)C(F)(F)F (stereo not drawn),melting point,,126 to 128 °C
Cc1cc(C(N)=O)ncc1C(c1c(F)ccc(F)c1F)S(=O)(=O)CCCC(F)(F)F (stereo not drawn),melting point,,201 to 203 °C
Cc1cc(C(N)=O)ncc1C(c1c(F)ccc(F)c1F)S(=O)(=O)CCC(F)F (stereo not drawn),melting point,,191.5 to 192 °C
"Cc1cc(C(N)=O)ncc1C(c1c(F)ccc(F)c1F)S(=O)(=O)CCC(Cl)(Cl)Cl (stereo not drawn) [Example 18, 4-Methyl-5-[[(3,3,3-trichloropropyl)sulfonyl](2,3,6-trifluorophenyl)methyl]pyridine-2-carboxamide]",EC50,[1],50 to 500 nM
same,melting point,,173 to 175 °C
Cc1cc(C(N)=O)ncc1C(c1c(F)ccc(F)c1F)S(=O)(=O)CCC(C)(C)C (stereo not drawn),melting point,,143 to 144 °C
Cc1cc(C(=O)NCO)ncc1C(c1c(F)ccc(F)c1F)S(=O)(=O)CCC(C)(F)F (stereo not drawn),melting point,,161 to 161.5 °C
"Cc1cc(C(N)=O)ncc1C(c1c(F)ccc(F)c1F)S(=O)(=O)CCCCl (stereo not drawn) [Example 30, 5-[[(3-Chloropropyl)sulfonyl](2,3,6-trifluorophenyl)methyl]-4-methylpyridine-2-carboxamide]",EC50,[1],50 to 500 nM
same,melting point,,197 to 199 °C

# — US20100168136A1, “ALKYLSULFONE DERIVATIVES” (DAIICHI SANKYO COMPANY, LIMITED, priority 2007, published 2010)
